Assay results from publication PMC9037358 (RSC Advances, 2021).

How the values were obtained:
[1] = MTT cytotoxicity assay, normal breast cell line; format: cell-based, human; details: human, MCF 10A normal breast cells
MDA-MB-231 [2] = assay: MTT cytotoxicity assay; format: cell-based; details: Homo sapiens, MDA-MB-231, 48 h, read-out: Cytotoxicity IC50 μM ± S.D. MDA-MB-231
MCF-7 = assay: MTT cytotoxicity assay; format: cell-based; details: Homo sapiens, MCF7, 48 h, read-out: Cytotoxicity IC50 μM ± S.D. MCF-7
[3] = system: Candida albicans ATCC 10231; assay: Antimicrobial activity; format: cell-based; details: 50 μg mL^−1; NA: not active
E. coli [4] = assay: Anti-biofilm activity; format: cell-based; details: 50 μg mL^−1
K. pneumonia = assay: Anti-biofilm activity; format: cell-based; details: 50 μg mL^−1
S. typhimurium = assay: Anti-biofilm activity; format: cell-based; details: 50 μg mL^−1
MCF 10A = assay: MTT cytotoxicity assay, normal breast cell line; format: cell-based, human; details: both breast cancer cell lines vs MCF-10A
Salmonella typhimurium = assay: Antimicrobial activity; format: cell-based; details: 50 μg mL^−1; NA: not active
Klebsiella pneumonia = assay: Antimicrobial activity; format: cell-based; details: 50 μg mL^−1; NA: not active
P. vulgaris = assay: Anti-biofilm activity; format: cell-based; details: 50 μg mL^−1
[5] = system: Staphylococcus aureus NRRL B-767; assay: Antimicrobial activity; format: cell-based; details: 50 μg mL^−1, NA: not active
P. aeruginosa = assay: Anti-biofilm activity; format: cell-based; details: 50 μg mL^−1
Proteus vulgaris = assay: Antimicrobial activity; format: cell-based; details: 24 h, read-out: inhibition ratio% P. vulgaris
carbonic anhydrase IX = carbonic anhydrase IX (Homo sapiens, UniProt Q16790); assay: In vitro carbonic anhydrase IX enzyme inhibition; format: biochemical
MDA-MB-231 [6] = assay: Cellular uptake assay; format: cell-based, human; details: HPLC
S. aureus = assay: Anti-biofilm activity; format: cell-based; details: 50 μg mL^−1
[7] = system: Escherichia coli ATCC 25955; assay: Antimicrobial activity; format: cell-based; details: 50 μg mL^−1; NA: not active
carbonic anhydrase II = carbonic anhydrase II (Homo sapiens, UniProt P00918); assay: In vitro carbonic anhydrase II enzyme inhibition; format: biochemical
CA IX = details: read-out: CA IX IC50; as reported; cited from earlier work
MDA-MB-231 [8] = assay: Annexin V-FITC apoptosis assay; format: cell-based, human
MDA-MB-231 [9] = assay: Cell cycle analysis; format: cell-based, human; details: compared to positive control
E. coli [10] = details: cited from earlier work
S. flexenari = details: cited from earlier work

Row | Structure (SMILES) | IC50 at 48 h [1] [µM] | IC50 (MDA-MB-231 [2]) [µM] | IC50 (MCF-7) [µM] | Biofilm inhibition ratio% E. coli (E. coli [4]) [%] | Biofilm inhibition ratio% K. pneumonia (K. pneumonia) [%] | inhibition ratio% S. typhimurium (Salmonella typhimurium) [%] | Biofilm inhibition ratio% P. vulgaris (P. vulgaris) [%] | inhibition ratio% S. aureus [5] [%] | inhibition of growth at 50 µg/mL (Proteus vulgaris) [%] | Biofilm inhibition ratio% S. aureus (S. aureus) [%] | other results
1 | NS(=O)(=O)c1ccc(NC2=NC(=O)/C(=C\c3ccccc3)S2)cc1 [Compound 4a, (E)-4-(5-Benzylidene-4-oxo-4,5-dihydrothiazol-2-ylamino)benzenesulfonamide] | 24.2 ± 0.9 | 12.8 ± 0.5 | 9.63 ± 0.4 |  |  |  |  |  |  |  | 
2 | C[C@@H]1[C@H](O)[C@@H](C)/C=C/C=C/CC/C=C/C=C/C=C/C=C/C(O[C@H]2O[C@H](C)[C@@H](O)[C@H](N)[C@@H]2O)CC2O[C@](O)(CC(O)C(O)CCC(O)CC(O)CC(O)CC(=O)O[C@H]1C)CC(O)C2C(=O)O (stereo partly shown) [Nys, nystatin, reference compound] |  |  |  |  |  |  |  |  |  |  | inhibition ratio% C. albicans [3]: 99.21%
3 | COc1cc(/C=C2/SC(Nc3ccc(S(N)(=O)=O)cc3)=NC2=O)ccc1O [Compound 4h, (E)-4-(5-(4-Hydroxy-3-methoxybenzylidene)-4-oxo-4,5-dihydrothiazol-2-ylamino)benzenesulfonamide] | 26.1 ± 1.1 | 1.56 ± 0.1 | 1.52 ± 0.1 | 19.89 | 77.52 | 59.11 | 50.54 | 68.30 | 19.1 | 19.39 | Biofilm inhibition ratio% S. typhimurium (S. typhimurium): 66.86%; selectivity to breast cancer cell lines over MCF-10A (MCF 10A): 17.5 times; inhibition ratio% K. pneumonia (Klebsiella pneumonia): 33.51%; Biofilm inhibition ratio% P. aeruginosa (P. aeruginosa): 35.96%; IC50 (carbonic anhydrase IX; CA IX IC50 (nM)±S.D.): 25.6 nM; IC50 (carbonic anhydrase IX; CA IX IC50 (μM)): 26 nM; level of compound taken up into MDA-MB-231 cell line (MDA-MB-231 [6]): 17070 ng/mL; inhibition ratio% E. coli [7]: 29.51%; IC50 (carbonic anhydrase II): 2.19 µM
4 | NS(=O)(=O)c1ccc(NC2=NC(=O)/C(=C\c3ccc([N+](=O)[O-])cc3)S2)cc1 [Compound 4g, (E)-4-(5-(4-Nitrobenzylidene)-4-oxo-4,5-dihydrothiazol-2-ylamino)benzenesulfonamide] | 47.9 ± 1.7 | 5.54 ± 0.2 | 2.55 ± 0.1 |  | 79.46 | 60.97 |  | 69.74 | 23.3 | 35.24 | selectivity to breast cancer cell lines over MCF-10A (MCF 10A): 8.5 times; IC50 (carbonic anhydrase IX; CA IX IC50 (nM)±S.D.): 17 nM; IC50 (carbonic anhydrase IX; CA IX IC50 (μM)): 17 nM; IC50 (carbonic anhydrase II): 1.55 µM
5 | NS(=O)(=O)c1ccc(NC2=NC(=O)/C(=C\c3ccc(Cl)cc3)S2)cc1 [Compound 4d, (E)-4-(5-(4-Chlorobenzylidene)-4-oxo-4,5-dihydrothiazol-2-ylamino)benzenesulfonamide] | 22.9 ± 0.8 | 1.88 ± 0.1 | 15.5 ± 0.6 |  |  |  |  |  |  |  | 
6 | NS(=O)(=O)c1ccc(NC2=NC(=O)/C(=C\c3ccc(C(=O)O)cc3)S2)cc1 [Compound 4f, (E)-4-((4-oxo-2-(4-Sulfamoylphenylamino)thiazol-5(4H)-ylidene)methyl)benzoic acid] | 30.3 ± 1.1 | 17.2 ± 0.7 | 36 ± 1.4 | 19.89 | 10.08 | 45.72 | 64.67 | 57.93 | 3.39 | 21.43 | Biofilm inhibition ratio% S. typhimurium (S. typhimurium): 36.57%; inhibition ratio% K. pneumonia (Klebsiella pneumonia): 26.80%; inhibition ratio% E. coli [7]: 46.45%
7 | CN(C)c1ccc(/C=C2/SC(Nc3ccc(S(N)(=O)=O)cc3)=NC2=O)cc1 [Compound 4j, (E)-4-(5-(4-(Dimethylamino)benzylidene)-4-oxo-4,5-dihydrothiazol-2-ylamino)benzenesulfonamide] | 13.1 ± 0.5 | 10.1 ± 0.4 | 26.6 ± 1 |  |  |  |  |  | 5.08 |  | 
9 | O=C(O)c1cn(C2CC2)c2cc(N3CCNCC3)c(F)cc2c1=O [Cip, ciprofloxacin, reference compound] |  |  |  |  |  | 99.56 |  | 99.25 | 99.8 |  | inhibition ratio% K. pneumonia (Klebsiella pneumonia): 99.7%; inhibition ratio% S. aureus ([5]; listed as CIP): 99.2%; inhibition ratio% E. coli [7]: 99.1%
10 | COc1ccc(/C=C2/SC(Nc3ccc(S(N)(=O)=O)cc3)=NC2=O)cc1 [Compound 4c, (E)-4-(5-(4-Methoxybenzylidene)-4-oxo-4,5-dihydrothiazol-2-ylamino)benzenesulfonamide] | 22.7 ± 0.8 | 6.31 ± 0.2 | 3.67 ± 0.1 |  |  |  |  |  |  |  | 
11 | NS(=O)(=O)c1ccc(NC2=NC(=O)/C(=C\c3ccc(O)cc3)S2)cc1 [Compound 4b, (E)-4-(5-(4-Hydroxybenzylidene)-4-oxo-4,5-dihydrothiazol-2-ylamino)benzenesulfonamide] | 17.8 ± 0.6 | 14.6 ± 0.6 | 3.63 ± 0.1 | 18.78 | 78.29 |  | 16.85 |  |  | 53.06 | Biofilm inhibition ratio% P. aeruginosa (P. aeruginosa): 45.51%; inhibition ratio% C. albicans [3]: 8.87%
12 | C=CCc1cc(/C=C2/SC(Nc3ccc(S(N)(=O)=O)cc3)=NC2=O)c(O)c(OC)c1 [Compound 4e, (E)-4-(5-(5-Allyl-2-hydroxy-3-methoxybenzylidene)-4-oxo-4,5-dihydrothiazol-2-ylamino)benzenesulfonamide] | 19.4 ± 0.7 | 3.58 ± 0.1 | 4.58 ± 1.8 | 15.47 | 18.60 | 75.09 | 61.41 | 80.69 | 42 | 45.92 | Biofilm inhibition ratio% S. typhimurium (S. typhimurium): 63.43%; selectivity to breast cancer cell lines over MCF-10A (MCF 10A): 5.5 times; necrosis phase (MDA-MB-231 [8]; upper left quadrant): 16.65%; annexin V-FITC-positive cells, late apoptotic phase (MDA-MB-231 [8]; upper right quadrant): 22.04%; inhibition ratio% K. pneumonia (Klebsiella pneumonia): 62.89%; IC50 (carbonic anhydrase IX; CA IX IC50 (nM)±S.D.): 10.9 nM; IC50 (carbonic anhydrase IX; CA IX IC50 (μM)): 11 nM; level of compound taken up into MDA-MB-231 cell line (MDA-MB-231 [6]): 12500 ng/mL; arrest in the S phase (MDA-MB-231 [9]): 1.4 fold; increase in the percentage of cells at pre-G1 (MDA-MB-231 [9]): 22 fold; inhibition ratio% E. coli [7]: 60.66%; IC50 (carbonic anhydrase II): 3.92 µM
13 | C[C@@H](O)[C@H]1C(=O)N2C(C(=O)O)=C(SCCN=CN)C[C@H]12 [imipenem] |  |  |  |  |  |  |  |  |  |  | zone inhibition (ZI) E. coli (E. coli [10]): 30 mm; zone inhibition (ZI) S. flexenari (S. flexenari): 27 mm
14 | COc1cc(/C=C2/SC(Nc3ccc(S(N)(=O)=O)cc3)=NC2=O)cc(OC)c1OC [Compound 4i, (E)-4-(4-oxo-5-(3,4,5-Trimethoxybenzylidene)-4,5-dihydrothiazol-2-ylamino)benzenesulfonamide] | 14.2 ± 0.5 | 16.3 ± 0.6 | 4.05 ± 0.2 | 49.72 | 5.43 |  | 7.61 |  |  | 22.55 | Biofilm inhibition ratio% S. typhimurium (S. typhimurium): 22.86%
